Assay: mn = molality of the nth substance listed, in mol/kg
Conditions: 101 kPa, Liquid; for mass density: Pycnometric method; for viscosity: Capillary tube (Ostwald / Ubbelohde) method; for speed of sound: Linear variable-path acoustic interferometer

CC(=O)[O-].CC(=O)[O-].[Mg+2] [magnesium acetate] + O
Conditions | mass density [kg/m3] | speed of sound [m/s] | viscosity [mPa·s]
305.5 K, m1 = 1.866 | 1115.1 | – | –
305.65 K, m1 = 0.646 | 1041.8 | – | –
305.85 K, m1 = 1.354 | 1086.1 | – | –
305.85 K, m1 = 5.732 | 1263.4 | – | –
305.95 K, m1 = 0.0831 | 1001 | – | –
305.95 K, m1 = 0.8751 | 1056.2 | – | –
306.3 K, m1 = 0.4247 | 1026.1 | – | –
306.4 K, m1 = 3.043 | 1171.3 | – | –
306.4 K, m1 = 3.437 | 1191.7 | – | –
306.55 K, m1 = 1.608 | 1101.3 | – | –
306.65 K, m1 = 5.165 | 1247 | – | –
306.75 K, m1 = 3.819 | 1203.4 | – | –
306.9 K, m1 = 0.1671 | 1007 | – | –
307.25 K, m1 = 2.134 | 1128.6 | – | –
307.5 K, m1 = 2.622 | 1152.1 | – | –
307.6 K, m1 = 4.547 | 1227.3 | – | –
307.65 K, m1 = 0.0414 | 997.17 | – | –
307.75 K, m1 = 1.327 | 1084 | – | –
308.05 K, m1 = 1.866 | 1114 | – | –
308.1 K, m1 = 1.106 | 1071.4 | – | –
308.15 K, m1 = 0.0414 | – | 1523.3 | 0.7529
308.15 K, m1 = 0.0831 | – | 1530.3 | 0.7775
308.15 K, m1 = 0.1671 | – | 1541.4 | 0.8306
308.15 K, m1 = 0.4247 | – | 1575.1 | 1.021
308.15 K, m1 = 0.646 | – | 1601.9 | 1.231
308.15 K, m1 = 0.8751 | – | 1631.2 | 1.45
308.15 K, m1 = 1.106 | – | 1655.9 | 1.774
308.15 K, m1 = 1.354 | – | 1677.9 | 2.139
308.15 K, m1 = 1.608 | – | 1705 | 2.139
308.15 K, m1 = 1.866 | – | 1728.9 | 3.181
308.15 K, m1 = 2.134 | – | 1754.2 | 3.943
308.15 K, m1 = 2.411 | – | 1782.5 | 5.121
308.15 K, m1 = 2.622 | – | 1791.3 | 5.819
308.15 K, m1 = 3.043 | – | 1819.5 | 8.11
308.15 K, m1 = 3.437 | – | 1847.8 | 12.3
308.15 K, m1 = 3.819 | – | 1862.6 | –
308.15 K, m1 = 4.001 | – | – | 19.17
308.15 K, m1 = 4.547 | – | 1888.8 | –
308.15 K, m1 = 4.563 | – | – | 31.43
308.15 K, m1 = 4.929 | – | – | 39.25
308.15 K, m1 = 5.165 | – | 1908 | –
308.15 K, m1 = 5.41 | – | – | 72.56
308.15 K, m1 = 5.732 | – | 1914.4 | 96.97
308.15 K, m1 = 6.187 | – | – | 175.6
308.45 K, m1 = 6.187 | 1274.5 | – | –
308.65 K, m1 = 0.646 | 1040.7 | – | –
308.65 K, m1 = 1.354 | 1085 | – | –
308.7 K, m1 = 3.437 | 1190.5 | – | –
308.75 K, m1 = 0.8751 | 1055.2 | – | –
308.75 K, m1 = 3.043 | 1170.1 | – | –
308.85 K, m1 = 5.165 | 1245.6 | – | –
308.9 K, m1 = 0.0831 | 1000 | – | –
308.95 K, m1 = 3.819 | 1202.2 | – | –
309.1 K, m1 = 2.411 | 1142.9 | – | –
309.25 K, m1 = 0.4247 | 1025.2 | – | –
309.6 K, m1 = 1.608 | 1100.1 | – | –
309.7 K, m1 = 0.1671 | 1006 | – | –
309.7 K, m1 = 4.547 | 1225.9 | – | –
309.7 K, m1 = 5.732 | 1260.8 | – | –
309.8 K, m1 = 2.134 | 1127.4 | – | –
309.95 K, m1 = 2.622 | 1151 | – | –
310.45 K, m1 = 6.187 | 1273.1 | – | –
310.6 K, m1 = 1.327 | 1082.8 | – | –
310.7 K, m1 = 1.106 | 1070.3 | – | –
310.8 K, m1 = 6.545 | 1280.7 | – | –
310.85 K, m1 = 0.0414 | 996.1 | – | –
310.85 K, m1 = 3.437 | 1189.2 | – | –
310.95 K, m1 = 5.165 | 1244.3 | – | –
311.2 K, m1 = 3.819 | 1201 | – | –
311.25 K, m1 = 3.043 | 1168.8 | – | –
311.35 K, m1 = 0.646 | 1039.6 | – | –
311.4 K, m1 = 1.354 | 1083.9 | – | –
311.65 K, m1 = 0.8751 | 1054 | – | –
311.85 K, m1 = 0.0831 | 998.98 | – | –
311.9 K, m1 = 4.547 | 1224.6 | – | –
312.1 K, m1 = 0.4247 | 1024 | – | –
312.15 K, m1 = 1.608 | 1099 | – | –
312.3 K, m1 = 6.187 | 1271.8 | – | –
312.45 K, m1 = 2.134 | 1126.3 | – | –
312.55 K, m1 = 0.1671 | 1004.8 | – | –
312.55 K, m1 = 2.622 | 1149.7 | – | –
312.7 K, m1 = 6.545 | 1279.4 | – | –
313.15 K, m1 = 0.0414 | – | 1532.2 | 0.6835
313.15 K, m1 = 0.0831 | – | 1539 | 0.7037
313.15 K, m1 = 0.1671 | – | 1547.7 | 0.7523
313.15 K, m1 = 0.4247 | – | 1582.3 | 0.9195
313.15 K, m1 = 0.646 | – | 1607.4 | 1.105
313.15 K, m1 = 0.8751 | – | 1635.6 | 1.294
313.15 K, m1 = 1.106 | – | 1659.1 | 1.573
313.15 K, m1 = 1.354 | – | 1679.3 | 1.887
313.15 K, m1 = 1.608 | – | 1704.6 | 1.887
313.15 K, m1 = 1.866 | – | 1728.4 | 2.771
313.15 K, m1 = 2.134 | – | 1752.5 | 3.404
313.15 K, m1 = 2.411 | – | 1778.6 | 4.373
313.15 K, m1 = 2.622 | – | 1787.1 | 4.948
313.15 K, m1 = 3.043 | – | 1815 | 6.797
313.15 K, m1 = 3.437 | 1188 | 1840.3 | 10.13
313.15 K, m1 = 3.819 | – | 1854.1 | –
313.15 K, m1 = 4.001 | – | – | 15.43
313.15 K, m1 = 4.547 | – | 1878.9 | –
313.15 K, m1 = 4.563 | – | – | 24.53
313.15 K, m1 = 4.929 | – | – | 30.41
313.15 K, m1 = 5.165 | – | 1896 | –
313.15 K, m1 = 5.41 | – | – | 54.06
313.15 K, m1 = 5.732 | – | – | 71.46
313.15 K, m1 = 6.187 | – | – | 120
313.35 K, m1 = 0.0414 | 995.14 | – | –
313.45 K, m1 = 1.327 | 1081.7 | – | –
313.45 K, m1 = 1.866 | 1111.6 | – | –
313.45 K, m1 = 3.819 | 1199.8 | – | –
313.5 K, m1 = 1.106 | 1069.1 | – | –
313.5 K, m1 = 3.043 | 1167.6 | – | –
313.55 K, m1 = 5.732 | 1258.3 | – | –
314 K, m1 = 4.547 | 1223.4 | – | –
314.05 K, m1 = 1.354 | 1082.8 | – | –
314.1 K, m1 = 2.411 | 1140.6 | – | –
314.25 K, m1 = 0.646 | 1038.6 | – | –
314.25 K, m1 = 6.187 | 1270.4 | – | –
314.3 K, m1 = 0.8751 | 1052.9 | – | –
314.35 K, m1 = 0.0831 | 997.91 | – | –
314.5 K, m1 = 6.545 | 1278.1 | – | –
314.65 K, m1 = 0.4247 | 1022.9 | – | –

Reference: the NIST ThermoML archive (doi:10.1021/je060107n)
